Data taken from patent US10849976B2, “Compositions and methods for protecting saponin activity” (SarTec Corporation, priority 2016, dated 2020).
Like-named read-outs stand apart in the source and are kept apart here.

Tested on: glucose oxidase
Excerpt: In addition, a saponin molecule has a few to several glucose units bonded to it, depending on the exact plant from which the saponin is extracted. Each glucose unit bonded to the saponin may have up to four more hydroxy (—OH) groups attached and pointing outward from the glucose ring into the water solution. Glucose concentrations can be measured by an assay that depends on glucose oxidase acting upon glucose. However, glucose oxidase is prevented from acting upon glucose if borate is effectively bound to glucose. Thus, observing a declining amount of glucose as measured using a glucose oxidase based assay is indicative of borate binding to glucose, which in turn, serves as another indication of the efficacy of the saponin-protective agent.
A standard glucose solution was prepared by weighing about 0.9 g of glucose and 0.450 g of NaCl into a 500.0 mL volumetric flask. Reverse osmosis water was added while mixing the reagents to reach the 500 mL total volume. Next, a 40.0 mL portion of the standard glucose solution was added to a 50 mL vial and 0.106 g of sodium borate was successively added resulting in a molar ratio of borate:glucose in a range of 1:1 to 6:1. Glucose levels were measured using a OneTouch Ultra 2 blood glucose meter.
The glucose level for the standard glucose/saline solution was taken both before and after the borate-containing glucose solutions were measured for glucose concentration.

O=BOB(O)OB(O)OB=O [Sodium Borate, sodium borate]
Protection of glucose from oxidation by glucose oxidase (3:1 borate:glucose molar ratio): effectively entirely protected
Glucose Meter Reading (Borate:Glucose molar ratio 1:1, 0.106 sodium borate added): 106 mg/dL
Glucose Meter Reading (Borate:Glucose molar ratio 2:1, 0.212 sodium borate added): 38 mg/dL
Glucose Meter Reading (Borate:Glucose molar ratio 3:1, 0.318 sodium borate added): “Low Glucose < 20 mg/dL”
Glucose Meter Reading (Borate:Glucose molar ratio 6:1, 0.636 sodium borate added): “Error 4”
